Patent publication US20080226714A1, “SUSTAINED-RELEASE TABLET FORMULATIONS OF PIPERAZINE-PIPERIDINE ANTAGONISTS AND AGONISTS OF THE 5-HT1A RECEPTOR HAVING ENHANCED INTESTINAL DISSOLUTION” (WYETH, priority 2007, published 2008)
Values after ≈ are worked out from the molar mass of the structure shown. Like-named read-outs stand apart in the source and are kept apart here.

How the values were obtained:
physchem = assay type: physicochemical
Source text: (§1) Pharmaceutical compounds that interact with the 5-HT1A receptor are useful to treat a wide variety of central nervous system disorders, such as cognition disorders, anxiety disorders, and depression. Certain piperazine-piperidine compounds have shown utility as 5-HT1A receptor antagonists, agonists and partial antagonist/agonists. See, for example, U.S. Patent Publication No. 2007/0027160, filed Jun. 9, 2006, entitled “piperazine-Piperidine Antagonists And Agonists Of The 5-HT1A Receptor”. […] During development of 5-fluoro-8-{4-[4-(6-methoxyquinolin-8-yl)piperazin-1-yl]piperidin-1-yl}quinoline, it was discovered that the compound has a pH-dependent solubility. […] Therefore, the rate of systemic input of 5-fluoro-8-{4-[4-(6-methoxyquinolin-8-yl)piperazin-1-yl]piperidin-1-yl}quinoline will be dependent on the dissolution or solubilization of the compound. […] A controlled-release formulation to reduce the dose frequency of 5-fluoro-8-{4-[4-(6-methoxyquinolin-8-yl)piperazin-1-yl]piperidin-1-yl}quinoline would be beneficial for improving compliance and convenience. However, this type of formulation presents the challenge of maintaining the dissolution of the compound in the lower gastrointestinal tract where solubility is very low.

[1] = Preclinical half-life after IV bolus; assay type: in vivo; conditions: Sprague-Dawley rats, 0.3 mg/kg IV bolus
Source text: See, for example, U.S. Patent Publication No. 2007/0027160, filed Jun. 9, 2006, entitled “piperazine-Piperidine Antagonists And Agonists Of The 5-HT1A Receptor”.

[2] = Permeability characteristics in animal studies; assay type: in vivo
Source text: as §1

Row | solubility (physchem; trisuccinate salt, pH greater than about six) | solubility (physchem; water, trisuccinate salt, aqueous, read-out: aqueous solubility) [µg/mL] | t1/2 [1] | permeability [2] | solubility (physchem; free base, water, read-out: water solubility) [µg/mL] | solubility (physchem; pH 2.4, aqueous buffer, pH about 2.4, read-out: solubility) [µg/mL] | solubility (physchem; pH 6, aqueous buffer, pH levels greater than about 6, read-out: solubility) [µg/mL] | solubility (physchem; pH 8.9, aqueous buffer, pH about 8.9, read-out: solubility) [µg/mL] | Structure (SMILES)
1 | sub-microgram per milliliter level | ~1000 | – | – | – | – | – | – | COc1cc(N2CCN(C3CCN(c4ccc(F)c5cccnc45)CC3)CC2)c2ncccc2c1.O=C(O)CCC(=O)O.O=C(O)CCC(=O)O.O=C(O)CCC(=O)O [5-fluoro-8-{4-[4-(6-methoxyquinolin-8-yl)piperazin-1-yl]piperidin-1-yl}quinoline trisuccinate]
2 | – | – | about one | high permeability | ~0.04 (≈ 0.0848 µM) | ~2200 (≈ 4670 µM) | < 1 | ~0.036 (≈ 0.0763 µM) | COc1cc(N2CCN(C3CCN(c4ccc(F)c5cccnc45)CC3)CC2)c2ncccc2c1 [5-fluoro-8-{4-[4-(6-methoxyquinolin-8-yl)piperazin-1-yl]piperidin-1-yl}quinoline]
